# Source: patent publication US9480677B2, “Enantiomers of spiro-oxindole compounds and their uses as therapeutic agents” (Xenon Pharmaceuticals Inc., priority 2009, dated 2016)
# Experiments:
# hNav1.7 [1] = molecular target: T1, hNav1.7 (Homo sapiens, UniProt Q15858); experiment: Electrophysiological assay, whole cell voltage clamp; assay type: cell-based; design: expressed in transfected cells; host or cells: HEK293
# Experimental: HEK293 Cells expressing hNav1.7 were cultured in DMEM growth media (Gibco) with 0.5 mg/mL G418, +/−1% PSG, and 10% heat-inactivated fetal bovine serum at 37° C. and 5% CO2. For electrophysiological recordings, cells were plated on 10 mm dishes.
# Whole cell recordings were examined by established methods of whole cell voltage clamp (Bean et al., op. cit.) using an Axopatch 200B amplifier and Clampex software (Axon Instruments, Union City, Calif.). All experiments were performed at ambient temperature. Electrodes were fire-polished to resistances of 2-4 Mohms Voltage errors and capacitance artifacts were minimized by series resistance compensation and capacitance compensation, respectively. Data were acquired at 40 kHz and filtered at 5 kHz. The external (bath) solution consisted of: NaCl (140 mM), KCl (5 mM), CaCl2 (2 mM), MgCl2 (1 mM), HEPES (10 mM) at pH 7.4. The internal (pipette) solution consisted of (in mM): NaCl (5), CaCl2 (0.1), MgCl2 (2), CsCl (10), CsF (120), HEPES (10), EGTA (10), at pH 7.2.
# To estimate the steady-state affinity of compounds for the resting and inactivated state of the channel (Kr and Ki, respectively), 12.5 ms test pulses to depolarizing voltages from −60 to +90 m V from a holding potential of −120 m V was used to construct current-voltage relationships (1-V curves). A voltage near the peak of the IV-curve (−30 to 0 m V) was used as the test pulse throughout the remainder of the experiment. Steady-state inactivation (availability) curves were then constructed by measuring the current activated during a 8.75 ms test pulse following 1 second conditioning pulses to potentials ranging from −120 to −10 mV.
# The steady-state voltage-dependence of binding of a compound to a voltage-gated sodium channel was determined by measuring the blockage of the ionic current at two holding potentials. Binding to rested-state channels was determined by using a holding potential of −120 mV, so that maximal availability was achieved. Binding to inactivated-state channels was evaluated at a holding potential such that only about 10% of the channels were available to open. The membrane potential was held at this voltage for at least 10 seconds so that drug binding could equilibrate.
# The apparent dissociation constant at each voltage was calculated with the equation:
# [formula] where Kd is the dissociation constant (either Kr or Ki), and [Drug] is the concentration of the test compound.
# hNav1.7 [2] = molecular target: T1, hNav1.7; details: (S)- versus (R)-enantiomer
# [3] = test system: chronic constriction injury neuropathic pain; experiment: Neuropathic pain model; chronic constriction injury (CCI); assay type: in vivo; details: topical ointment containing 2% (w/v)
# [4] = Phase 1 clinical trial of topical ointment: systemic pharmacokinetics; assay type: in vivo, human
# [5] = test system: histamine-induced pruritis; experiment: Histamine-induced pruritis in vivo assay; design: species or system male ICR mice; details: scored over 40 minutes
# Experimental: Histamine induces pruritis (itching) in humans. Accordingly, this assay evaluates the efficacy of topically and orally administered (S)-enantiomer of the invention on histamine-induced pruritis in male ICR mice. […] One day prior to testing, the scapular regions on the animals were shaved with hair clippers. On the testing day, the animals were habituated for 60 minutes in the test chamber comprising of a clear plastic tube placed vertically on a flat surface. After the habituation period, the animals were removed from the plastic tube, placed in a restrainer, and injected with histamine at the shaved scapular region. The injections were made intradermally into the skin in small injection volumes (10 μL) using a Hamilton syringe. […] Immediately after the injections, the animals were returned to the test chambers and observed by cameras placed above the test chambers for a total of 50 minutes. The cameras were connected to a computer where digital video files were created, saved, and analyzed. The number of itching bouts was scored over 40 minutes. An “itching bout” was defined as the lifting of a hind leg, using it to scratch the scapular region, and then placing it back on the ground. […] The data were analyzed using GraphPad Prism 5 statistical analysis software and an unpaired t-test was used for univariate analysis. Results are expressed as mean±SEM. […]
# dental pain = experiment: Clinical trial for dental pain after extraction of impacted third molar teeth; assay type: in vivo; details: single 500 mg dose, human subjects
# Experimental: The purpose of this clinical trial was to compare the safety and efficacy (onset, duration of relief, and overall efficacy) of a single 500 mg dose of the (S)-enantiomer of the invention versus placebo dose for relief of pain following extraction of impacted third molar teeth.
# Sixty-one subjects were enrolled in the study. The mean age for the subjects was 20.4 years, and all subjects were male. The majority of subjects were Caucasians (95.1%).
# The severity and relief of the pain was measured using an 11-point Pain Intensity Numerical Rating Scale (graded from 0=no pain at all to 10=worst pain imaginable) (PINRS) and a 5-point Categorical Pain Relief Scale (REL). Subjects completed the PINRS after surgery, but before the administration of (S)-enantiomer of the invention. Efficacy variables were derived from the REL and PINRS scores and included total pain relief (TOTPAR), pain intensity difference (PID), and summed pain intensity difference (SPID) and evaluated at time points of 4, 6, 8, and 12 hours after administration of the (S)-enantiomer of the invention.
# [6] = Solubility in pharmaceutically acceptable excipients; assay type: physicochemical
# Text: Thus, the (S)-enantiomer can be formulated in a fewer number of dosage units than the racemate. This property facilitates dosing patients at a higher level if needed to achieve efficacy.
# hNav1.7 [7] = molecular target: T1, hNav1.7; experiment: cell-based
# [8] = test system: local skin toxicity/irritancy
# T1 sequence (Q15858 whole entry): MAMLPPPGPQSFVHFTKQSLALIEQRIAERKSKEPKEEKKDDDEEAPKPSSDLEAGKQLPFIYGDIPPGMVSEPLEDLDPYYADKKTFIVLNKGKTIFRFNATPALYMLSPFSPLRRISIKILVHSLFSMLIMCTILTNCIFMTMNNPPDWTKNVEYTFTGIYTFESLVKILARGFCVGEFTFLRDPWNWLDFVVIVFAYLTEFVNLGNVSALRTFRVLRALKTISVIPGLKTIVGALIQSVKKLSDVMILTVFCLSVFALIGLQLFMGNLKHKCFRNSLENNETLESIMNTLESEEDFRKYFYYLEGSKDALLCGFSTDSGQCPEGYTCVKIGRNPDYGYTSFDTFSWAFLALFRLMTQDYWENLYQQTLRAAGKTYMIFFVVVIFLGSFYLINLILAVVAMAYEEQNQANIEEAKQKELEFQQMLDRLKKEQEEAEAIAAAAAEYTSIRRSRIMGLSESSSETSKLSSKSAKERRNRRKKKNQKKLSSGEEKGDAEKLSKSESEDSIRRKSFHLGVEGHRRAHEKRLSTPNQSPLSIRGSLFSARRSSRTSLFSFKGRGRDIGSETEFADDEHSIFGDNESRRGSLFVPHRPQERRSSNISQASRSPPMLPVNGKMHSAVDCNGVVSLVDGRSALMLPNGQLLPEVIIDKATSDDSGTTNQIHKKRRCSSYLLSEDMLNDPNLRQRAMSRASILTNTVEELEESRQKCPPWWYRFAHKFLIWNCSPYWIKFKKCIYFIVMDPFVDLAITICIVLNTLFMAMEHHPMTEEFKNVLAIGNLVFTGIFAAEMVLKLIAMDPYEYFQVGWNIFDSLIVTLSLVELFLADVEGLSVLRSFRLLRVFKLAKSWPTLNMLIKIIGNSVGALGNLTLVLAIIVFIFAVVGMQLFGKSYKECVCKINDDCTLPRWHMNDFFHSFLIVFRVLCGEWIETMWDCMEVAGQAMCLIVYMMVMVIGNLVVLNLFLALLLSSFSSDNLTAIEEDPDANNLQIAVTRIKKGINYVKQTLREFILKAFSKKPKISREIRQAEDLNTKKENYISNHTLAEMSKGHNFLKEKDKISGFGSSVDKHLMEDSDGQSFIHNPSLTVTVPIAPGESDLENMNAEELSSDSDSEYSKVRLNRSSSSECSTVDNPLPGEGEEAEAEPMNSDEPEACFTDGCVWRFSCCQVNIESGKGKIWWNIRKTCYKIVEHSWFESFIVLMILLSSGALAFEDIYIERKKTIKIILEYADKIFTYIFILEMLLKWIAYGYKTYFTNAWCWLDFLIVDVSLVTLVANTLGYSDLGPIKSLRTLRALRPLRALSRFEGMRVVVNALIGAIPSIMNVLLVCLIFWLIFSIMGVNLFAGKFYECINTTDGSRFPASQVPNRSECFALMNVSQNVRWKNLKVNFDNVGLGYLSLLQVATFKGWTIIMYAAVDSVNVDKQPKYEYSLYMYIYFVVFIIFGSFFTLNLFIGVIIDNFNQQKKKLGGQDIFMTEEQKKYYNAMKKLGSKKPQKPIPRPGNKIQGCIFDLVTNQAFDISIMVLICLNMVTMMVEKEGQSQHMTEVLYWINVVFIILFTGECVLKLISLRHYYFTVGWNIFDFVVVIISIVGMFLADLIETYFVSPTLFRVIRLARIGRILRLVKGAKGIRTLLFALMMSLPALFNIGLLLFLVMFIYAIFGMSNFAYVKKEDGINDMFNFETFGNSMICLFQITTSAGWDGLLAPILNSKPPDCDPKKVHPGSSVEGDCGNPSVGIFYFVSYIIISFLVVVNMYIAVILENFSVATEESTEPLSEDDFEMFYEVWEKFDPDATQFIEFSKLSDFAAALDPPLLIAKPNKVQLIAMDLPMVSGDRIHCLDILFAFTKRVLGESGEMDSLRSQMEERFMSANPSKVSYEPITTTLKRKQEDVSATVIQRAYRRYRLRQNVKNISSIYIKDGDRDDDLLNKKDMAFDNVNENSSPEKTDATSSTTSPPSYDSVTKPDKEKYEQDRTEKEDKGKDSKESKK
smiles,measurement,setting,value
"O=C1N(Cc2ccc(C(F)(F)F)o2)c2ccccc2[C@]12COc1cc3c(cc12)OCO3 [(I-S), (S)-1′-{[5-(trifluoromethyl)furan-2-yl]methyl}spiro[furo[2,3-f][1,3]benzodioxole-7,3′-indol]-2′(1′H)-one]",potency in binding to the inactivated-state of hNav1.7 relative to the (R)-enantiomer,hNav1.7 [1]; (S)- versus (R)-enantiomer,about 5 times
same,Ki,hNav1.7 [1]; affinity for the inactivated state of hNav1.7,161 nM
same,Kd,"hNav1.7 [1]; affinity for the rested/closed state of hNav1.7, holding potential −120 mV, read-out: Kr",> 10000 nM
same,inhibition potency against hNav1.7 compared to the (R)-enantiomer,hNav1.7 [2],> 1000 fold
same,"reversal of pain responses, percent increase from baseline",[3],reversed pain responses
same,concentrations in plasma,[4]; below LLOQ in most samples (489 out of 546=~90%),< 0.1 ng/mL
same,concentration at 22 day,"[4]; human, plasma, Day 22, read-out: highest level observed in plasma in one subject during the dosing period",0.994 ng/mL
same,total number of itching bouts,"[5]; 50 mg of 8% (w/v) topical, n=16, vehicle 134.3±13.31",89.00±10.51 itching bouts
same,total number of itching bouts,"[5]; 50 mg/Kg oral gavage, n=8, vehicle 42.88±6.667",17.25±6.310 itching bouts
same,onset of action,dental pain,slow onset of action
same,pain relief compared to placebo,dental pain,higher
same,"primary and all secondary endpoints (TOTPAR, PID, SPID) versus placebo",dental pain,consistent analgesic trend
same,statistical significance from the placebo,dental pain,not achieved
same,solubility,"[6]; Ethanol, organic solvent or mixture",36.4 mg/mL
same,solubility,"[6]; PEG 400, organic solvent or mixture",> 55 mg/mL
same,solubility,"[6]; Propylene glycol, organic solvent or mixture",9.8 mg/mL
same,solubility,"[6]; oil or lipid, Capryol ® 90",96 mg/mL
same,solubility,"[6]; oil or lipid, Labrasol ®",231 mg/mL
same,solubility,"[6]; oil or lipid, Labrasol ®/Capryol ® 90 60/40",191 mg/mL
same,solubility,"[6]; organic solvent or mixture, Labrasol ®/PEG 400 60/40",182 mg/mL
same,solubility,"[6]; organic solvent or mixture, Labrasol ®/Transcutol ® 60/40",186 mg/mL
same,solubility,"[6]; organic solvent or mixture, Tween ® 80",> 123 mg/mL
same,IC50,hNav1.7 [7],3 nM
same,Serious Adverse Events (SAEs) or deaths,"[8]; 4% and 8% (w/w) ointment daily for 21 days, healthy subjects",No Serious Adverse Events (SAEs) or deaths were reported
same,cumulative irritation scores versus placebo ointments and negative control (0.9% saline),"[8]; human, in vivo",No difference was observed
same,"electrocardiography: pulse rate, quiescent resting state, QTc intervals","[8]; human, in vivo",did not demonstrate clinically significant changes
same,severity of Adverse Events (AEs),"[8]; human, in vivo",mild or moderate in severity
same,"vital signs, physical examinations, laboratory assessments","[8]; human, in vivo",no clinically significant changes from baseline
same,"skin irritation score, maximum","[8]; human, in vivo, 21 days",≤ 3
